Laboratory results published in ChEMBL document CHEMBL3217524, “The anti-tumor antibiotic PD 113,271 binds to microtubule-associated protein 1B (MAP1B)” (Medchemcomm, 2011).
≈ marks a conversion by molar mass, not a printed value. Calls of active or inactive are those of the source. The rule behind the calls is not given here.

How the values were obtained:
[1] = molecular target: T1, Microtubule-associated protein 1B (Homo sapiens, UniProt P46821); experiment: Binding affinity to human recombinant MAP1B-HBR (589 to 790) expressed in Escherichia coli BL21(DE3) by surface plasmon resonance analysis
[2] = molecular target: Ribosomal L1 domain-containing protein 1 (Homo sapiens) (UniProt O76021); experiment: Binding affinity to human ribosomal L1 domain containing protein (309 to 432) expressed in T7 phage after 1 hr by ELISA
[3] = molecular target: T1, Microtubule-associated protein 1B; experiment: Binding affinity to human MAP1B (582 to 705) expressed in T7 phage after 1 hr by ELISA
[4] = Cytotoxicity against human HCT8 cells; format: functional, cell-based; settings: HCT-8
Ehrlich = experiment: Inhibition of topoisomerse-2 in mouse EAC cells; format: cell-based
[5] = Inhibition of PP2A (unknown origin) by spectrophotometry; parameters: species or system Homo sapiens
L1210 = experiment: Cytotoxicity against mouse L1210 cells; format: functional, cell-based
[6] = molecular target: T1, Microtubule-associated protein 1B; experiment: Binding affinity to MAP1B in human MCF7 cells assessed as protein complex at 1 uM after 24 hrs by DAPI staining-based immunofluorescence microscopy relative to control; format: cell-based
[7] = molecular target: Microtubule-associated protein 1B (Rattus norvegicus) (UniProt P15205); experiment: Binding affinity to MAP1B in rat PC12 cells after 2 hrs by Western blotting analysis; format: cell-based; settings: PC-12
[8] = molecular target: T1, Microtubule-associated protein 1B; experiment: Binding affinity to human recombinant MAP1B-HBR (589 to 790) expressed in Escherichia coli BL21(DE3) assessed as inhibition of MAP1B-HBR-tubulin interaction at 1 to 20 uM by surface plasmon resonance analysis
[9] = molecular target: T1, Microtubule-associated protein 1B; experiment: Binding affinity to MAP1B in human MCF7 cells assessed as protein localization around perinuclear region at 1 uM after 24 hrs by DAPI staining-based immunofluorescence microscopy relative to control; format: cell-based

T1 sequence (P46821 2-2206 limits assumed): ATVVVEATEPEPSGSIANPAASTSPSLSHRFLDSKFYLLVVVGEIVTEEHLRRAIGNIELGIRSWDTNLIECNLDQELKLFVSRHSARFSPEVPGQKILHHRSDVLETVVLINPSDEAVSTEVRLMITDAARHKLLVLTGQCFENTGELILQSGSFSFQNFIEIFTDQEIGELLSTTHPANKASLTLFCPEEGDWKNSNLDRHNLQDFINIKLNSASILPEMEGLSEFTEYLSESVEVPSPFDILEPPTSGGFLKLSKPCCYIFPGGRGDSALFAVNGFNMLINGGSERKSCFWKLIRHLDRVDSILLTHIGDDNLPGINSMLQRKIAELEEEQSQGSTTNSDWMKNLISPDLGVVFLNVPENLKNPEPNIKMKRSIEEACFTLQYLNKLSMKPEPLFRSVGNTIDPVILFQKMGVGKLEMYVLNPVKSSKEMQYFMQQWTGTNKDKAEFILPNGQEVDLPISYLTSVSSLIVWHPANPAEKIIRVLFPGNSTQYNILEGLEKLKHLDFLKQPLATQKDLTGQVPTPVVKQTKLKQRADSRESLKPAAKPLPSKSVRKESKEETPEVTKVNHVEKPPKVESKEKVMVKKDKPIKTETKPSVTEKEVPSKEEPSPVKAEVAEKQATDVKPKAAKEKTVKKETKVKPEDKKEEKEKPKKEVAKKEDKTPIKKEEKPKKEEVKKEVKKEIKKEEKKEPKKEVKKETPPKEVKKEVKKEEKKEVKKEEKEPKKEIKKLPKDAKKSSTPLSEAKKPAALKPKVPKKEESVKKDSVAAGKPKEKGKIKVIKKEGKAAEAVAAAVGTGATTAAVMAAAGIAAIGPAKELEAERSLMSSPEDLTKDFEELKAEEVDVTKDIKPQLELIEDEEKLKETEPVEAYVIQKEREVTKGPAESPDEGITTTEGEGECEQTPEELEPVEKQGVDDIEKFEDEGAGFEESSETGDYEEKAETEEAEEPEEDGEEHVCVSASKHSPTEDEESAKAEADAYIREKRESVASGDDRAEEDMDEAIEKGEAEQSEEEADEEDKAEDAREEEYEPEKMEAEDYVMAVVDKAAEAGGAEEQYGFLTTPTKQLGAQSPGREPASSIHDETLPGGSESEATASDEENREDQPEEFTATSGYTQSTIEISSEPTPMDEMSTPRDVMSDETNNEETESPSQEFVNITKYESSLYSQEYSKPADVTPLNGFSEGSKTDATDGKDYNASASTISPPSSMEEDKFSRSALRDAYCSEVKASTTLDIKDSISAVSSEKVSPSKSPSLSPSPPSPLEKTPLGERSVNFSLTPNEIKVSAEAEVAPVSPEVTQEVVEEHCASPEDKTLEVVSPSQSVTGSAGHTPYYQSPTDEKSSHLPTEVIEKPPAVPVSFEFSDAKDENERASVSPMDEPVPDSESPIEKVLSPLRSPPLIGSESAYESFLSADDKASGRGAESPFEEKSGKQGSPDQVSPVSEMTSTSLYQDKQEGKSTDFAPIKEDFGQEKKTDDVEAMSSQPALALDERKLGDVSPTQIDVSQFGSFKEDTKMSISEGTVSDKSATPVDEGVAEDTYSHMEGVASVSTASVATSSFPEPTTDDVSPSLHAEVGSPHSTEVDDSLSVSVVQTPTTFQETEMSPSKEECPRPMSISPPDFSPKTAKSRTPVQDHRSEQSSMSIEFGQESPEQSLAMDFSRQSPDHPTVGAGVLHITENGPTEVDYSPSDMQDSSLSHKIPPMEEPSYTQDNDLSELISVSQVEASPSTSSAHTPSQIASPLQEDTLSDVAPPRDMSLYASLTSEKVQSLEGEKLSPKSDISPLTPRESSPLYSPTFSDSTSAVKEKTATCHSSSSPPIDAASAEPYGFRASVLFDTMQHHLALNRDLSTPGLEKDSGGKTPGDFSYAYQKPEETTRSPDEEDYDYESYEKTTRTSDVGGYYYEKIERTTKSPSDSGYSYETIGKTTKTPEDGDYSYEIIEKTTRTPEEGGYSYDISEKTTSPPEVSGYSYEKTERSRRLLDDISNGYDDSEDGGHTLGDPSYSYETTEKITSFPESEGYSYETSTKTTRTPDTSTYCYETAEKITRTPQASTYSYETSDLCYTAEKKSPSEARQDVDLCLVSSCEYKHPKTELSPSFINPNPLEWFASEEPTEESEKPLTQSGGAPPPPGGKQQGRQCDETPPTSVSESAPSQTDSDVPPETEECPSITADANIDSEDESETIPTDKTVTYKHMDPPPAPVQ
T1 sequence (P46821 2207-2468 limits assumed): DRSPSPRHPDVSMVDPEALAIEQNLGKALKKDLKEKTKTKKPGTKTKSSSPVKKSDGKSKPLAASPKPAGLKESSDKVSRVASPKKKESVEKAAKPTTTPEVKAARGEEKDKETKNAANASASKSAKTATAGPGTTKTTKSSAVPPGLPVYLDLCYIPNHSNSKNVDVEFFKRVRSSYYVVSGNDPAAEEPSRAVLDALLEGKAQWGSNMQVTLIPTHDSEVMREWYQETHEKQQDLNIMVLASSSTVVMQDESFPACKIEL
Chain of Microtubule-associated protein 1B (Rattus norvegicus) (P15205 whole entry): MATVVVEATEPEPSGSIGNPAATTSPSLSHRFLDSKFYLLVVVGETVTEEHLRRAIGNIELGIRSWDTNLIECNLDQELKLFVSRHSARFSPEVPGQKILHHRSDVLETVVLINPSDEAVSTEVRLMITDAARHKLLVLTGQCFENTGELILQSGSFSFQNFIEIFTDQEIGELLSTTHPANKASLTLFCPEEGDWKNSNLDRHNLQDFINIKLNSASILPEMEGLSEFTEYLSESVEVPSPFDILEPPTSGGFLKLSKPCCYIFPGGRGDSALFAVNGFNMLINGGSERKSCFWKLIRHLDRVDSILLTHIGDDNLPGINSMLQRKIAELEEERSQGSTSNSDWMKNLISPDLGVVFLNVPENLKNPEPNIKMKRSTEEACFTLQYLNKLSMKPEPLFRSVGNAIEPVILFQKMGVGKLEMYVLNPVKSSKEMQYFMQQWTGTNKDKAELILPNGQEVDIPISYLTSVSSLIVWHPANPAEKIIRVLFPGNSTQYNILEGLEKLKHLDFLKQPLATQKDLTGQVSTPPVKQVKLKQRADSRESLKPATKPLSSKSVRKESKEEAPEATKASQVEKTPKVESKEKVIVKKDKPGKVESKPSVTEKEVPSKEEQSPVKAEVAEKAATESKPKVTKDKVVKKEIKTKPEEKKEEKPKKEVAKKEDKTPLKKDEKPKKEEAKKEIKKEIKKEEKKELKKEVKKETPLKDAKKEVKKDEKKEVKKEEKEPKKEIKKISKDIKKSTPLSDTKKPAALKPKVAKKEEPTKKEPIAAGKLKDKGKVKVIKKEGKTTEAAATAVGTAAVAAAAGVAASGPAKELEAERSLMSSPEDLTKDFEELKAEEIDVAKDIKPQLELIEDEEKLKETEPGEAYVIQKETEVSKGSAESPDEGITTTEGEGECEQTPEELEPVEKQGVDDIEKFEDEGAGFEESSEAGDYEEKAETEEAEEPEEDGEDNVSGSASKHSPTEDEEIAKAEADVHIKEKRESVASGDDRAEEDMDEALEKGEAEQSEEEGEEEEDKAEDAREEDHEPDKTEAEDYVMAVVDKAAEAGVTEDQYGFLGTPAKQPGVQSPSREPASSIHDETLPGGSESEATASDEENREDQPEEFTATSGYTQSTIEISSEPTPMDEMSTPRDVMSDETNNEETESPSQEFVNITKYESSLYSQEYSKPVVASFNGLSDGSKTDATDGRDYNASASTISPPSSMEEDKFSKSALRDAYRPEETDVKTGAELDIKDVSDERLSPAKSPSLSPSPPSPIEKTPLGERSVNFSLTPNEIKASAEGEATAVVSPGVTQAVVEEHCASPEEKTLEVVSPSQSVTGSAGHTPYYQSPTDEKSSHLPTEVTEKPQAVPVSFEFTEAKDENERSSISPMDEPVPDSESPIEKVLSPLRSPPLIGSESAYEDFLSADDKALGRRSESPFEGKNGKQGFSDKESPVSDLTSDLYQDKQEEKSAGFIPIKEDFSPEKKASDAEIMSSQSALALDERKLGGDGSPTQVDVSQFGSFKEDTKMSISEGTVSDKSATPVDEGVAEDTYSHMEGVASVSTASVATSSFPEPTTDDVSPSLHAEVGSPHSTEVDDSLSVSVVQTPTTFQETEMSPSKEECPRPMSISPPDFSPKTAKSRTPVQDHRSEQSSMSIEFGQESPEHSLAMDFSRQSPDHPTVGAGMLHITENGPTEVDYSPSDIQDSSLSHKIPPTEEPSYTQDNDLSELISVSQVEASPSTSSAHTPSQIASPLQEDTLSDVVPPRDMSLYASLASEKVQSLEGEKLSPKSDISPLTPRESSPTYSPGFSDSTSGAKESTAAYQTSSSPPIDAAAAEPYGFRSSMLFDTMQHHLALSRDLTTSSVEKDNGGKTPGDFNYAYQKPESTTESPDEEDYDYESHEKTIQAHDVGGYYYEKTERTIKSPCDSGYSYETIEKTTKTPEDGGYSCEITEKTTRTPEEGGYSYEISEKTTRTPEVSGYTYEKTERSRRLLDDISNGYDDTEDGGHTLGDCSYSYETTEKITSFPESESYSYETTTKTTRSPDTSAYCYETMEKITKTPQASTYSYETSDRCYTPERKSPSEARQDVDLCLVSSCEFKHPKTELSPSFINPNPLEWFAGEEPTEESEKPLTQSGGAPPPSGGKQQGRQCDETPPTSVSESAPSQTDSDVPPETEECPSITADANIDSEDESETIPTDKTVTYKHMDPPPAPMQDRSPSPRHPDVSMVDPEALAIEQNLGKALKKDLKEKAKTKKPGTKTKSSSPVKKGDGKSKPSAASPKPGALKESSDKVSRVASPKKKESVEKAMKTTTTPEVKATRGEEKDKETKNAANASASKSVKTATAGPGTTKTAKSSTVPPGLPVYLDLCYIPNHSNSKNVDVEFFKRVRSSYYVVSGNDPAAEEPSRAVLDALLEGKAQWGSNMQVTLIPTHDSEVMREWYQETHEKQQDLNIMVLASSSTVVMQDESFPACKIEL

SMILES | Activity [2] | Activity [3] | IC50 [4] [µM] | MIC (Ehrlich) [µM] | other results
C[C@@](O)(/C=C/[C@@H]1OC(=O)C=C[C@@H]1OCc1ccc(OCCOCCOCc2cn(CCOCCNC(=O)CCCC[C@@H]3SC[C@@H]4NC(=O)N[C@@H]43)nn2)cc1)[C@@H](C[C@@H](O)\C=C/C=C\C=C\CO)OP(=O)(O)O | Active | Active | – | – | Kd [1]: 0.21 µM
C[C@@](O)(/C=C/[C@H]1CC=CC(=O)O1)[C@@H](C[C@@H](O)\C=C/C=C\C=C\CO)OP(=O)(O)O [FOSTRIECIN] | – | – | 5.1 | 50 (≈ 21.5 µg/mL) | IC50 [5]: 0.0015 µM
O=C(CCCC[C@@H]1SC[C@@H]2NC(=O)N[C@@H]21)NCCOCCn1cc(COCCOCCOc2ccc(COP(=O)(O)O)cc2)nn1 | Active | inactive | – | – | –
C[C@@](O)(/C=C/[C@@H]1OC(=O)C=C[C@@H]1O)[C@@H](C[C@@H](O)\C=C/C=C\C=C\CO)OP(=O)(O)O | – | – | 9 | 12.5 (≈ 5.58 µg/mL) | IC50 (L1210): 1.8 µM; Activity [6]: Active; Activity [7]: Active; Activity [8]: Active; Activity [9]: Active
